Reference: patent publication US20250206773A1, “FORMS AND COMPOSITIONS OF SODIUM CHENODEOXYCHOLATE” (Syntis Bio, Inc., priority 2022, published 2025)
Where two headings read alike, the source gives them in different places.

Assays:
[1] = assay type: physicochemical
Method: HPLC analysis was carried out on an Agilent 1260 Infinity chromatograph, using a Hichrom C18 column 100×4.6 mm, 3.5 m, at 40° C. Method details were as follows: [table] Around 10 mg of NaCDC Form B was weighed into 1.6 mL HPLC vials. 3-5 mm PTFE-covered cylindrical magnetic stirring bars were added to the vials. […] The vials were visually inspected before each addition to check for the dissolution of the starting material, and the solvent addition was stopped when a complete dissolution was observed. The clear solutions were left to rest at RT. […] The experiments were held at each temperature for 1 h, and then they were visually inspected to see if dissolution occurred. At the end of the experimental time, the magnetic stirring bars were removed, and all slurries or solutions were dried at different temperatures depending on the boiling points of each solvent used (i.e., at 30° C., 20-21 mbar or 50° C., 21 mbar, for 21 hours; with the exception of experiments SASO7, SAS33, SAS34, SAS35, SAS36 and SAS45 which were dried at 50° C. for 43 hours). All the resulting solids were analyzed by XRPD. For several selected experiments, HPLC analysis was performed. The solids that gave new XRPD patterns were investigated by TGA/DSC. [table]

[2] = Heating of solid at 315° C. / 360° C., then XRPD and HPLC; assay type: physicochemical
Method: Based on the results obtained from the TG/DSC analysis, a sample of NaCDC Form B was heated at 315° C. and another sample at 360° C. After heating, the samples were cooled to room temperature and analyzed by XRPD (FIG. 16). […] The material obtained after heating a sample at 360° C. was amorphous.

[3] = Exposure to moist air (RH 95%, room temperature), XRPD before/after; assay type: physicochemical
Method: FIG. 4 is a series of XRPD patterns, showing NaCDC Form A before (thick line) and after (thin line) 15 hours of exposure to RH 95% at room temperature. FIG. 8 is a series of XRPD patterns, showing NaCDC Form B before (thick line) and after (thin line) 15 hours of exposure to RH 95% at room temperature.

[4] = Polymorph screening: slurry (XRPD, HPLC of recovered solids); assay type: physicochemical; conditions: slurry 7 days
Method: Around 15 mg of NaCDC Form B was weighted into HPLC vials, and the appropriate volume of solvent was added at RT. Slurries were aged for 7 days under stirring (500 rpm), at multiple temperatures: 5° C., 25-30° C., 40° C., and 50° C. All solids were air-dried on filter paper and then analyzed by XRPD. Depending on the results obtained by XRPD and material availability, some experiments were analyzed by HTPLC and TG/DSC.

[5] = Intrinsic dissolution, USP rotating disk apparatus; assay type: physicochemical
Method: For the intrinsic dissolution studies, the following HPLC method was used: [table] Intrinsic dissolution profiles of NaCDC Form A and Form B were determined from a drug disk of constant surface area using a USP rotating disk apparatus in phosphate buffer (pH 7.4) at 37° C. […] A typical apparatus consisted of a punch and a die, whose base is attached to a surface plate. […] The punch was then inserted in the die cavity and the test material was compressed with a hydraulic press. A non-disintegrating compact of the material was formed in the die cavity with a single face of defined area exposed on the bottom of the die. The die assembly was then attached to a shaft with a holder and the surface plate was removed. The shaft holding the die assembly was positioned into the dissolution medium at a distance not less than 1.0 cm from the bottom of the vessel. In this procedure, fluid flow was generated by the rotation of the die. The amount of material dissolved was measured as a function of time. In particular, the cumulative amount dissolved at each time point was corrected for losses due to sampling. […] Method parameters are summarized below: [table]

[6] = assay type: physicochemical; remark: listed apart in the source
Method: In-process stability of NaCDC Form B was evaluated under two conditions at reflux, as described in Table 1 below.

[7] = SL70, Methyl ethyl ketone (MEK), 50° C.
[8] = n-BuOH/water (6/1), azeotropic reflux for 24 h
[9] = n-BuOH/water (6/1), azeotropic reflux

HPLC (%) 212 nm ([1]; SAS01, Water (H2O), solid after evaporation A (30° C., 20-21 mbar, 21 hours)): 84.9%
HPLC (%) 212 nm ([1]; SAS03, Ethanol (EtOH), solid after evaporation A (30° C., 21 hours)): 71.5%
HPLC (%) 212 nm ([1]; SAS04, 2-Propanol (2-PrOH), solid after evaporation A (30° C., 21 hours)): 96.6%
HPLC (%) 212 nm ([1]; SAS05, 2-Methyl-1-propanol (Isobutanol), solid after evaporation A (30° C., 21 hours)): 96.5%
HPLC (%) 212 nm ([1]; SAS06, 2-Butanol, solid after evaporation A (30° C., 21 hours)): 97.5%
HPLC (%) 212 nm ([1]; SAS07, 2-Ethoxyethanol, solid after evaporation C (50° C., 43 hours)): 38.0%
HPLC (%) 212 nm ([1]; SAS08, 2,2,2-Trifluoroethanol (TFE), solid after evaporation A (30° C., 21 hours)): 91.3%
HPLC (%) 212 nm ([1]; SAS09, 3-Methyl-1-butanol (Isoamyl alcohol), solid after evaporation B (50° C., 21 hours)): 48.1%
HPLC (%) 212 nm ([1]; SAS20, n-Butyl acetate, solid after evaporation B (50° C., 21 hours)): 96.3%
HPLC (%) 212 nm ([1]; SAS24, Diisopropyl ether, solid after evaporation A (30° C., 21 hours)): 94.4%
HPLC (%) 212 nm ([1]; SAS33, Benzonitrile, solid after evaporation C (50° C., 43 hours)): 68.0%
HPLC (%) 212 nm ([1]; SAS34, N,N-Dimethyl-acetamide, solid after evaporation C (50° C., 43 hours)): 1.2%
HPLC (%) 212 nm ([1]; SAS35, N-Methyl-pyrrolidone, gel after evaporation C (50° C., 43 hours)): 1.5%
HPLC (%) 212 nm ([1]; SAS36, Dimethyl sulfoxide (DMSO), solid after evaporation C (50° C., 43 hours)): 32.4%
HPLC (%) 212 nm ([1]; SAS39, EtOH:MeCN (1:1 v/v), solid after evaporation A (30° C., 21 hours)): 80.1%
HPLC (%) 212 nm ([1]; SAS40, H2O:THF (1:1 v/v), solid after evaporation A (30° C., 21 hours)): 77.5%
HPLC (%) 212 nm ([1]; SAS41, H2O:EtOH (1:1 v/v), solid after evaporation A (30° C., 21 hours)): 90.7%
HPLC (%) 212 nm ([1]; SAS42, H2O:2-PrOH (1:1 v/v), solid after evaporation A (30° C., 21 hours)): 92.0%
HPLC (%) 212 nm ([1]; SAS43, H2O:MeCN (1:1 v/v), solid after evaporation A (30° C., 21 hours)): 91.1%
HPLC (%) 212 nm ([1]; SAS44, H2O:Acetone (1:1 v/v), solid after evaporation A (30° C., 21 hours)): 93.7%
HPLC (%) 212 nm ([1]; SAS45, H2O:DMSO (1:1 v/v), solid after evaporation C (50° C., 43 hours)): 30.2%
HPLC (%) 212 nm ([1]; SAS46, MeOH:EtOAc (1:1 v/v), solid after evaporation A (30° C., 21 hours)): 89.0%
HPLC (%) 212 nm ([1]; SAS47, MeOH:Acetone (1:1 v/v), solid after evaporation A (30° C., 21 hours)): 91.0%
HPLC (%) 212 nm ([1]; SAS48, EtOH:n-Heptane (1:1 v/v), solid after evaporation A (30° C., 21 hours)): 90.1%
HPLC purity of recovered solids (dropped from 99.2%) ([1]; experiments with 2-ethoxyethanol, 3-methyl-1-butanol, benzonitrile, DMAc, NMP, DMSO, H2O:DMSO (1:1 v/v)): 1.2-68.0%
XRPD after heating ([2]; heated at 360° C.): amorphous
HPLC purity after heating ([2]; sample heated at 315° C., cooled to room temperature): 66.9%
effect of exposure to moist air (XRPD) ([3]; 15-20 hours at 95% humidity): eventual amorphization
loss of crystallinity on moist air exposure compared with Form A ([3]; 95% humidity): markedly slower
HPLC purity (%) at 212 nm ([4]; SL01, Ethanol (EtOH), 5° C.): 89.70%
XRPD ([4]; SL05, Methylcyclohexane, 5° C.): SM, P.O.
XRPD ([4]; SL06, n-Heptane, 5° C.): SM, l.c.
HPLC purity (%) at 212 nm ([4]; SL13, tert-Butyl methyl ether, 5° C.): 87.21%
XRPD ([4]; SL15, Tetrahydrofuran (THF), 5° C.): SM, l.c.
XRPD ([4]; SL19, Acetonitrile (MeCN), 5° C.): SM, l.c.
HPLC purity (%) at 212 nm ([4]; SL22, EtOH:MeCN (1:1 v/v), 5° C.): 91.93%
HPLC purity (%) at 212 nm ([4]; SL23, EtOH:n-Heptane (1:1 v/v), 5° C.): 93.64%
HPLC purity (%) at 212 nm ([4]; SL26, Ethanol (EtOH), 25-30° C.): 92.34%
HPLC purity (%) at 212 nm ([4]; SL27, 2-Propanol (2-PrOH), 25-30° C.): 88.33%
XRPD ([4]; SL28, 2-Methyl-1-propanol (Isobutanol), 25-30° C.): l.c., SM
XRPD ([4]; SL29, 2-Butanol, 25-30° C.): SM, l.c.
XRPD ([4]; SL31, Methylcyclohexane, 25-30° C., solvent almost evap./consumed on the 7th day): SM, l.c.
HPLC purity (%) at 212 nm ([4]; SL39, tert-Butyl methyl ether, 25-30° C.): 84.05%
XRPD ([4]; SL41, Tetrahydrofuran (THF), 25-30° C.): SM, l.c.
HPLC purity (%) at 212 nm ([4]; SL48, EtOH:MeCN (1:1 v/v), 25-30° C.): 83.87%
HPLC purity (%) at 212 nm ([4]; SL49, EtOH:n-Heptane (1:1 v/v), 25-30° C.): 93.06%
HPLC purity (%) at 212 nm ([4]; SL52, Ethanol (EtOH), 40° C.): 87.98%
HPLC purity (%) at 212 nm ([4]; SL56, 2-Propanol (2-PrOH), 50° C.): 84.92%
XRPD ([4]; SL60, n-Heptane, 50° C., solvent almost evap./consumed on 7th day): l.c., SM
HPLC purity (%) at 212 nm ([4]; SL68, Tetrahydrofuran (THF), 50° C.): 78.16%
HPLC purity (%) at 212 nm [4, 7]: 90.88%
XRPD [4, 7]: SM, h.c.
HPLC purity (%) at 212 nm ([4]; SL74, EtOH:MeCN (1:1 v/v), 50° C.): 78.36%
HPLC purity (%) at 212 nm ([4]; SL75, EtOH:n-Heptane (1:1 v/v), 50° C.): 85.10%
solid form after compression (XRPD) ([5]; 2 tons for 2 minutes): no change in solid form
IDR (intrinsic dissolution rate) ([5]; USP phosphate buffer pH 7.4, 37° C., 100 rpm, disk 0.5024 cm^2): 0.9218 mg · min^−1 · cm^−2
HPLC Purity % CDC (t24) ([6]; n-BuOH, reflux for 24 h): 99.9%
HPLC Purity % Cholic acid (t24) ([6]; n-BuOH, reflux for 24 h): 0.05%
HPLC Purity % CDC (t0) ([6]; n-BuOH, reflux): 99.9%
HPLC Purity % Cholic acid (t0) ([6]; n-BuOH, reflux): 0.05%
HPLC Purity % CDC (t24) [6, 8]: 99.92%
HPLC Purity % Cholic acid (t24) [6, 8]: 0.05%
HPLC Purity % CDC (t0) [6, 9]: 99.92%
HPLC Purity % Cholic acid (t0) [6, 9]: 0.05%
Compound: C[C@H](CCC(=O)[O-])[C@H]1CC[C@H]2[C@@H]3[C@H](O)C[C@@H]4C[C@H](O)CC[C@]4(C)[C@H]3CC[C@]12C.[Na+] [Form B, sodium chenodeoxycholate]
XRPD after heating ([2]; heated at 315° C.): different diffractogram than the starting material
